One assay has as its system ATCC 6258 (QC). The experiment in a line: microdilution assay (NCCLS), inhibitory concentration (IC). As to conditions: Table 4 series, RPMI-1640 medium. Type of assay: cell-based, Candida krusei.
Assay [1] concerns Cryptococcus neoformas RKI 18/05. Described as above. Type of assay: cell-based. As to conditions: RPMI-1640 medium. How it is done: More specifically, a determination of inhibitory concentration (IC) of hassallidin A and hassallidin B for various fungi, Candida species and Candida strains were performed with different media (RPMI-1640 or SAB or AM3) in a microdilution assay by following the guidelines in NCCLS documents M^38-P^25 and M27-A2^26 carried out as follows Each substance was dissolved with 100% dimethyl sulfoxide (Serva, Heidelberg, Germany) to give a stock solution of 3.2 mg/ml followed by nine log2 dilution steps with the solvent. This served as a 100-fold concentrated dilution series ranging from 1.6 mg/ml to 0.003 mg/ml of the test substance. The final concentration of the test substance was 16 µg/ml to 0.031 µg/ml.
Therefore the 100-fold concentrated dilution series (with 100% DMSO) was diluted to the final concentration by two dilution steps: • (1) Each concentration of the 100-fold concentrated substance was diluted with test medium for 1:50 (for ex.: adding of 13 µl of the test substance to 637 µl test medium). • (2) 100 µl of each 1:50 diluted concentration was filled in a row of wells of a microtitre plate. One well was without the substance but with the 1:50 diluted solvent serving as growth control.
A further 1:2 dilution of the antifungal was made by the inoculation of each well with 100 µl of the test organism, which was suspended in the test medium. The remaining well of the row was used for sterility control of the medium. The inoculum was strictly prepared according the NCCLS^25 guidelines, resulting in […] for Candida-species and Cryptococcus neoformans. For hyphomycetes CFU's were tenfold higher (see NCCLS). ^26 The growth of the hyphomycetes respectively the inhibition was measured by visual reading with the help of a reading mirror; scoring was done according to NCCLS :^26 score 0 corresponds to a optical clear well or an IC95 or higher, score 1 corresponds to an inhibition of 80 percent (IC80) and the score 2 of the NCCLS definition corresponds to the IC50 values in the tables. […] The percent inhibition IC50, IC80 or IC95 (corresponding the scores of 2, 1 and 0) was calculated by the following formula: (100−[(ODof the well−ODof the medium)] × 100)/((ODof the growth control−ODof the medium).) [formula] Table 3. Test series for determining IC values of hassallidin A and B in different media using Candida albicans and Candida krusei. The IC values were measured after 24 h and 48 h at 30 °C.

Another assay concerns Streptomyces versicolor. The experiment in a line: disk diffusion assay on LB-agar plates. Type of assay: cell-based. Conditions: 10 µg in 30 µL 50% MeOH per disk. How it is done: (§1) The antifungal activity of the compounds according to the present invention, in particular hassallidin A and hassallidin B, was verified for Aspergillus fumigatus and Candida albicans by minimum inhibitory concentration (MIC) data in a serial dilution test. For each fungus six testing wells of a microtiter plate were prepared with 240 µL medium (Sigma RPMI-1640), 10 µL inoculum suspension and 50 µL fungicide solution (50% MeOH) of different concentrations. Inoculum preparation was carried out by guideline of NCCLS.^25 The fungicide solution preparation took place in a series of twofold dilutions from a stock solution of 92 µg/mL starting with 4.6 µg/50 µL down to 0.14 µg/50 µL. One well was prepared without antifungal agent for unhindered growth as control. The microtiter plates were incubated for Candida albicans and Aspergillus fumigatus at 35 °C for 24 h and 48 h, respectively. Tests were run in triplicates. Inhibition of growth was assessed by comparing the fungal growth of the test samples with the control well by determination of optical density at 595 nm in a microplate reader. The concentration of the well at highest dilution that was still free from growth was assigned the minimum inhibitory concentration (MIC in µg/mL). […] No activities were observed by using Bacillus subtilis, Streptomyces versicolor or Escherchia coli in disk diffusion assays on LB-agar plates with 10 µg hassallidin A in 30 µL 50% MeOH per disk.
For orientation: A growth-free zone around the sample is the usual read-out of agar diffusion tests.

Another assay has as its system Escherchia coli. The experiment in a line: disk diffusion assay on LB-agar plates. As to conditions: 10 µg in 30 µL 50% MeOH per disk. Type of assay: cell-based. How it is done:
as §1

The subject of the next assay is Bacillus subtilis. The experiment in a line: disk diffusion assay on LB-agar plates. Type of assay: cell-based. As to conditions: 10 µg in 30 µL 50% MeOH per disk. How it is done: as §1
Assay [2] concerns Jurkat ATCC-TIB-152 (human acute T cell leukemia) celline. The experiment in a line: cytotoxicity, cell viability by XTT test (1st test). The class given is cell-based. How it is done: Furthermore, the compounds according to the present invention were tested in relation to their activity against cancer cell lines. They were tested for cytotoxicity by determining the IC50-values. The IC50-value was determined by the procedure discrided in Filip P, Anke T, Sterner O, 5-(2'-oxoheptadecyl)-resorcinol and 5-(2'-oxononadecyl)-resorcinol, cytotoxic metabolites from a wood-inhabiting basidiomycete, ZNaturforsch [C]. 2002 Nov-Dec;57(11-12):1004-8. Sample preparation was carried out as follows: 1 st test The compound (hassalidin B) (20 µg) was dissolved in 4 µl DMSO and 16 µl H2O to give a concentration of 1 mg/ml. 1 µl of this solution and 0,5 µl of this solution were used to inoculate 200 µl culture medium each, thus making up a concentration of hassallidin B of 5µg/ml and 2,5 µ/ml, respectively. Thereafter 68 µl H2O were added to 17 µl of the solution of 1 mg/ml hassalidin B to give a concentration of 200 µg/ml, and again 1 µl and 0,5 µl of this solution were used to inoculate 200 µl of culture medium each thus making up a final concentration of hassallidin B of 1 µg/ml and 0,5 µg/ml, respectively. […] Cell viability of cell growing was measured by the XTT test (Boehringer, Mannheim/Roche) as discribed in the product information. […]
Background: Tetrazolium dyes change colour on reduction, which living cells bring about.

For the substance hassallidin A, the IC80 with ATCC 6258 (QC) (35°C/24h) was 8 µg/mL; with ATCC 6258 (QC) (35°C/48h), 16 µg/mL; in assay [1] (35°C/24h, visual), 4 (visual) µg/mL; in assay [1] (35°C/48h), 4 µg/mL. Moreover, the IC95 is listed as 8 µg/mL in the assay with ATCC 6258 (QC) (35°C/24h); 4 (visual) µg/mL in assay [1] (35°C/24h, visual); 4 µg/mL in assay [1] (35°C/48h). For the same substance, the IC50 is given as 4 (visual) µg/mL in assay [1] (35°C/24h, visual) and 4 µg/mL in assay [1] (35°C/48h). The “activity in disk diffusion assay” value in the assay with Streptomyces versicolor, in the assay on Escherchia coli and with Bacillus subtilis was “No activities” in each case.
With hassallidin B, the IC50-value in assay [2] came to 0.2 µg/mL.

(Values after EP1698638A1, “Lipopeptides having pharmaceutical activity” (Technische Universität Berlin, priority 2005, dated 2006).)
